# Data taken from patent EP2036556A1, “Piperidone derivatives and medical uses thereof” (Heinrich-Pette-Institut, priority 2007, dated 2009).
# Read-outs that look alike come from different tables or passages of the source.
# Experiments:
# [1] = system: macrophage cell line J774.1; test: Macrophage assay (Alamar Blue cytotoxicity); type: cell-based
# Description: The macrophage cell line J774.1 was maintained in complete Click RPMI medium. For the experimental procedures cells were detached from the flasks with a rubber police, washed twice with PBS and suspended at 2 x 10^6 cells mL^-1 in complete Click RPMI medium. […] Following the addition of 20 µl of Alamar Blue, the plates were further incubated at similar conditions. The plates were then read 24 and 48 h later. Control experiments to examine the effect of cell density, incubation time and DMSO concentration were performed. Absorbance in the absence of compounds was set as 100 % of growth control.
# [2] = system: T. brucei brucei laboratory strain TC 221; test: Trypanosome assay (in vitro cytotoxicity, Alamar Blue); type: cell-based, Trypanosoma brucei brucei; settings: for activity against trypanosomes (in words): statement of the discussion
# Description: Parasite culture: Trypomastigote forms of T. brucei brucei laboratory strain TC 221 were cultured in Baltz medium according to standard conditions.^36 In vitro cytotoxicity assays: The test compounds were dissolved in DMSO or 0.1 M NaOH. A defined number of parasites (10^4 trypanosomes per mL) were exposed in test chambers of 96-well plates to various concentrations of the test substances in a final volume of 200 µl. Positive (trypanosomes in culture medium) and negative controls (test substance without trypanosomes) were run with each plate. The plates were then incubated at 37°C in an atmosphere of 5 % CO2 for a total time period of 72 h. […] The effect of test substances was quantified in ED50 values by linear interpolation^18 of three different measurements. The activity of the test substances was measured by light absorption in an MR 700 Microplate Reader at a wavelength of 550 nm with a reference wave length of 630 nm, using the Alamar Blue®.
# P. falciparum = settings: cited from earlier work
# rodent malaria model = settings: cited from earlier work
# [3] = Mus musculus, J774.1 macrophages, after 48h, read-out: ED50 [µM] Macrophage after 48h
# [4] = Trypanosoma brucei, strain TC 221, 10^4 trypanosomes per mL, incubated 72 h, reading at 48 h, Alamar Blue, read-out: ED50 [µM] T. brucei brucei
# [5] = J774.1 macrophages, after 48h, read-out: ED50 [µM] Macrophage after 48h
# [6] = strain TC 221, 10^4 trypanosomes per mL, incubated 72 h, reading at 48 h, Alamar Blue, read-out: ED50 [µM] T. brucei brucei
# [7] = reference substances, for comparison (title of Table 1), read-out: ED50 (T. brucei brucei)
# [8] = Trypanosoma brucei, reference substances, for comparison (title of Table 1), read-out: ED50 (T. brucei brucei)
Compound,"EC50 [1, 3] [µM]","EC50 [2, 4] [µM]",also measured
"COC(=O)C1C(=O)C(C(=O)OC)[C@H](c2ccccn2)N(CCCCCCCC(=O)O)[C@@H]1c1ccccn1 (stereo partly drawn) [Compound 7, 8-[(2R,6S)-3,5-bis(methoxycarbonyl)-4-oxo-2,6-di(pyridin-2-yl)piperidin-1-yl]octanoic acid]",33.8 ± 2.81,24 ± 4.48,–
"C=CCN1[C@H](c2ccccc2)C(C(=O)OC)C(=O)C(C(=O)OC)[C@@H]1c1ccccc1 (stereo partly drawn) [Compound 18, Dimethyl (2R,6S)-1-allyl-4-oxo-2,6-diphenylpiperidine-3,5-dicarboxylate]",> 100,4.86 ± 0.63,–
"COC(=O)C1C(=O)C(C(=O)OC)[C@H](c2ccccn2)N[C@@H]1c1ccccn1 (stereo partly drawn) [Compound 1, Dimethyl (2R,6S)-4-oxo-2,6-di(pyridin-2-yl)piperidine-3,5-dicarboxylate]",> 100,28.1 ± 1.52,–
"ON=CC1CCN(CCCc2ccccc2)CC1 [Compound 52, 1-1-(3-Phenyl-propyl)-piperidine-4-carbaldehyde oxime]",–,–,"EC50 [1, 5]: > 100 µM; activity against trypanosomes (in words) [2]: neither the oximes 48 and 52 nor the oxime ether 49 are active against trypanosomes; EC50 [2, 6]: > 100 µM"
"ON=C1CCN(CCCc2ccccc2)CC1 [Compound 48, 1-(3-Phenylpropyl)-4-piperidine oxime]",–,–,activity against trypanosomes (in words) [2]: neither the oximes 48 and 52 nor the oxime ether 49 are active against trypanosomes
"N[C@@H](Cn1ccc(=O)c(O)c1)C(=O)O [mimosine, L-mimosine]",–,–,"IC50 (P. falciparum; chloroquine resistant (CQR) strain, read-out: IC50 antiplasmodial effect): 39 µM; IC50 (P. falciparum; chloroquine susceptible (CQS) strain, read-out: IC50 antiplasmodial effect): 32 µM; toxicity in vivo (rodent malaria model; in vivo): toxic"
"C=CCN1[C@H](c2ccccn2)C(C(=O)OC)C(=O)C(C(=O)OC)[C@@H]1c1ccccn1 (stereo partly drawn) [Compound 2, Dimethyl (2R,6S)-1-allyl-4-oxo-2,6-di(pyridin-2-yl)piperidine-3,5-dicarboxylate]",> 100,26.5 ± 7.64,–
"COC(=O)C1C(=O)C(C(=O)OC)[C@H](c2ccccn2)N(CCOCCO)[C@@H]1c1ccccn1 (stereo partly drawn) [Compound 5, Dimethyl (2R,6S)-1-[2-(2-hydroxyethoxy)ethyl]-4-oxo-2,6-di(pyridin-2-yl)piperidine-3,5-dicarboxylate]",38.5 ± 6.17,24.1 ± 4.27,–
"N=C(N)c1ccc(OCCCCCOc2ccc(C(=N)N)cc2)cc1 [Pentamidine diisothionate, reference compound]",–,–,"EC50 [2, 7]: 0.0027 µM"
"COC(=O)C1C(=O)C(C(=O)OC)[C@H](c2cccc([N+](=O)[O-])c2)N(Cc2ccc(OC)cc2)[C@@H]1c1cccc([N+](=O)[O-])c1 (stereo partly drawn) [Compound 15, Dimethyl (2R,6S)-1-(4-methoxybenzyl)-2,6-bis(3-nitrophenyl)-4-oxopiperidine-3,5-dicarboxylate]",> 100,3.93 ± 1.1,–
"COC(=O)C1C(=O)C(C(=O)OC)[C@H](c2ccccn2)N(Cc2ccccn2)[C@@H]1c1ccccn1 (stereo partly drawn) [Compound 8, Dimethyl (2R,6S)-4-oxo-2,6-di(pyridine-2-yl)-1-(pyridine-2-yl-methyl)-piperidine-3,5-diearboxylate]",–,–,"EC50 [1, 5]: 29.9 ± 2.32 µM; EC50 [2, 6]: 4.62 ± 1.39 µM"
"COC(=O)C1C(=O)C(C(=O)OC)[C@H](c2ccccn2)N(CCO)[C@@H]1c1ccccn1 (stereo partly drawn) [Compound 3, Dimethyl (2R,6S)-1-(2-hydroxyethyl)-4-oxo-2,6-di(pyridin-2-yl)piperidine-3,5-dicarboxylate]",31.15 ± 0.14,22.8 ± 5.57,–
"COC(=O)C1=C(O)C[C@@H](c2ccccn2)N(Cc2cccc(OC)c2)[C@H]1c1ccccn1 [Compound 23, Methyl (2'R,6'S)-4'-hydroxy-1'-(3-methoxybenzyl)-1',2',5',6'-tetrahydro-2,2';6',2''-terpyridine-3'-carboxylate]",> 100,> 100,–
"COC(=O)C1C(=O)C(C(=O)OC)[C@H](c2ccccn2)N(CC(C)O)[C@@H]1c1ccccn1 (stereo partly drawn) [Compound 4, Dimethyl (2R,6S)-1-(2-hydroxypropyl)-4-oxo-2,6-di(pyridin-2-yl)piperidine-3,5-dicarboxylate]",32 ± 0.63,18.3 ± 2.59,–
"COC(=O)C1=C(O)C[C@@H](c2ccccn2)N(Cc2ccc(C)cc2)[C@H]1c1ccccn1 [Compound 20, Methyl (2'R,6'S)-4'-hydroxy-1'-(4-methylbenzyl)-1',2',5',6'-tetrahydro-2,2';6',2''-terpyridine-3'-carboxylate]",34.9 ± 0.45,0.47 ± 0.17,–
"Cc1cc(C2CCCCC2)n(O)c(=O)c1 [Ciclopiroxolamine, reference compound]",–,–,"EC50 ([1]; Mus musculus, J774.1, reference substance, for comparison, 48 h, read-out: ED50 (macrophages, 48 h)): 4.62 ± 0.97 µM; EC50 [2, 8]: 0.62 ± 0.22 µM; IC50 (P. falciparum; chloroquine sensitive (CQS) NF54 P. falciparum strain, read-out: IC50 in vitro proliferation): 8.2 µM; efficacy in vivo (rodent malaria model; rodent malaria model): ineffective in vivo"
"COC(=O)C1C(=O)C(C(=O)OC)[C@H](c2ccccn2)N(CCCC(=O)O)[C@@H]1c1ccccn1 (stereo partly drawn) [Compound 6, 4-[(2R,6S)-3,5-bis(methoxycarbonyl)-4-oxo-2,6-di(pyridin-2-yl)piperldin-1-yl]butanoic acid]",–,–,"EC50 [1, 5]: 46 ± 5.92 µM; EC50 [2, 6]: 19.3 ± 2.28 µM"
"COC(=O)C1C(=O)C(C(=O)OC)[C@H](c2ccccn2)N(Cc2ccccc2)[C@@H]1c1ccccn1 (stereo partly drawn) [Compound 9, Dimethyl (2R,6S)-1-benzyl-4-oxo-2,6-di(pyridin-2-yl)piperidine-3,5-dicarboxylate]",34 ± 1.56,11.1 ± 1.91,–
"COC(=O)C1C(=O)C(C(=O)OC)[C@H](c2cccc([N+](=O)[O-])c2)N(Cc2ccc(Cl)cc2)[C@@H]1c1cccc([N+](=O)[O-])c1 (stereo partly drawn) [Compound 14, Dimethyl (2R,6S)-1-(4-chlorobenzyl)-2,6-bis(3-nitrophenyl)-4-oxopiperidine-3,5-dicarboxylate]",46.6 ± 9.86,10.6 ± 2.83,–
"C[C@@H]1[C@H](O)[C@@H](C)/C=C/C=C/C=C/C=C/C=C/C=C/C=C/[C@H](O[C@@H]2O[C@H](C)[C@@H](O)[C@H](N)[C@@H]2O)C[C@@H]2O[C@](O)(C[C@@H](O)C[C@@H](O)[C@H](O)CC[C@@H](O)C[C@@H](O)CC(=O)O[C@H]1C)C[C@H](O)[C@H]2C(=O)O [Amphotericin B, reference compound]",–,–,"IC50 ([1]; reference substance, for comparison, read-out: IC50 (J774.1 Macrophages)): 68.6 ± 16.5 µM"
"COC(=O)C1C(=O)C(C(=O)OC)[C@H](c2cccc([N+](=O)[O-])c2)N(Cc2ccccc2)[C@@H]1c1cccc([N+](=O)[O-])c1 (stereo partly drawn) [Compound 17, Dimethyl (2R,6S)-1-benzyl-2,6-bis(3-nitrophenyl)-4-oxopiperidine-3,5-dicarboxylate]",> 100,2.49 ± 0.79,–
"COC(=O)C1C(=O)C(C(=O)OC)[C@H](c2cccc([N+](=O)[O-])c2)N(Cc2ccc(C)cc2)[C@@H]1c1cccc([N+](=O)[O-])c1 (stereo partly drawn) [Compound 16, Dimethyl (2R,6S)-1-(4-methylbenzyl)-2,6-bis(3-nitrophenyl)-4-oxopiperidine 3,5-dicarboxylate]",49.8 ± 16.8,2.66 ± 0.49,–
"COC(=O)C1=C(O)C[C@@H](c2ccccn2)N(Cc2ccc(OC)cc2)[C@H]1c1ccccn1 [Compound 22, Methyl (2'R,6'S)-4'-hydroxy-1'-(4-methoxybenzyl)-1',2',5',6'-tetrahydro-2,2';6',2''-terpyridine-3'-carboxylate]",29.9 ± 0.33,0.43 ± 0.17,–
"C=CCN1[C@@H](c2ccc([N+](=O)[O-])cc2)C(C(=O)OC)=C(O)C(C(=O)OC)[C@@H]1c1ccc([N+](=O)[O-])cc1 (stereo partly drawn) [Compound 10, Dimethyl (2R,6S)-1-allyl-4-hydroxy-2,6-bis(4-nitrophenyl)-1,2,3,6-tetrahydropyridine-3,5-dicarboxylate]",50.3 ± 11.7,2.41 ± 0.39,–
"Cc1ccc(C(=O)Nc2ccc(S(=O)(=O)O)c3cc(S(=O)(=O)O)cc(S(=O)(=O)O)c23)cc1NC(=O)c1cccc(NC(=O)Nc2cccc(C(=O)Nc3cc(C(=O)Nc4ccc(S(=O)(=O)O)c5cc(S(=O)(=O)O)cc(S(=O)(=O)O)c45)ccc3C)c2)c1 [Suramine, reference compound]",–,–,"EC50 [2, 8]: 0.3 µM"
"NCCCC(N)(C(=O)O)C(F)F (centres unmarked) [Eflornitine, reference compound]",–,–,"EC50 [2, 7]: 22.9 µM"
"COC(=O)C1=C(O)C[C@@H](c2ccccn2)N(Cc2ccccc2)[C@H]1c1ccccn1 [Compound 19, Methyl (2'R,6'S)-1'-benzyl-4'-hydroxy-1',2',5',6'-tetrahydro-2,2';6',2''-terpyridine-3'-carboxylate]",33.2 ± 0.69,1.37 ± 0.02,–
"CC(CN1CCC(=NOCc2c(Cl)cccc2Cl)CC1)c1ccccc1 (centres unmarked) [Compound 49, 1-(2-Phenylpropyl)-4-oxo-piperidine O-(2,6-dichloro-benzyl)-oxime]",> 100,> 100,activity against trypanosomes (in words) [2]: neither the oximes 48 and 52 nor the oxime ether 49 are active against trypanosomes
